Data as given in US8455497B2, “Inhibitors of aspartyl protease” (Vertex Pharmaceuticals Incorporated, priority 1999, dated 2013).
Like-named read-outs stand apart in the source and are kept apart here.

System: HIV-1 (strain IIIB)
Assay: Antiviral activity assay in MT4 cells (propidium iodide based)
Format: cell-based
Description: Antiviral Activity Assay in MT4 Cells
Aliquots of the test compounds were serially diluted in medium (RPMI 1640, 10% fetal calf serum (FCS), and gentamycin) in 96-well plates (Costar 3598) using a Cetus Pro/Pette. Exponentially growing MT4 cells were harvested and centrifuged at 1000 rpm for 10 min in a Jouan centrifuge (model CR 4 12). Cell pellets were resuspended in fresh medium (RPMI 1640, 20% FCS, 20% IL-2, and gentamycin) to a density of 5×10^5 cells/ml. Cell aliquots were infected by the addition of HIV-1 (strain IIIB) diluted to give a viral multiplicity of infection of 100×TCID50. A similar cell aliquot was diluted with medium to provide a mock-infected control. Cell infection was allowed to proceed for 1 hr at 37° in a tissue culture incubator with humidified 5% CO2 atmosphere. After the 1 hr incubation the virus/cell suspensions were diluted 6-fold with fresh medium, and 125 μl of the cell suspension was added to each well of the plate containing pre-diluted compound. Plates were then placed in a tissue culture incubator with humidified 5% CO2 for 5 days. At the end of the incubation period, 27 μl of 5% Nonidet-40 was added to each well of the incubation plate. After thorough mixing with a Costar multitip pipetter, 60 μl of the mixture was transferred to filter-bottomed 96-well plates. The plates were analyzed in an automated assay instrument (Screen Machine, Idexx Laboratories). The assay makes use of a propidium iodide dye to estimate the DNA content of each well.
The anti-viral potency in MT-4 cells of the compounds set forth in Tables 1 and 2 was determined using the above technique.

[1] = wild type HIV-1 virus, MT4 cells, read-out: Wildtype virus - IC50
[2] = Human immunodeficiency virus 1, MT4, 120 h, MT-4 cells, HIV-1 strain IIIB, 5 days, read-out: IC50 (Antiviral Activity of Compounds of the Invention)
[3] = Human immunodeficiency virus 1, IIIB, wild type HIV-1 virus, MT4 cells, read-out: Wildtype virus - IC50
[4] = MT-4 cells, HIV-1 strain IIIB, 5 days, read-out: IC50 (Antiviral Activity of Compounds of the Invention)

CC(C)CN(C[C@@H](O)[C@H](Cc1ccc(OCCc2ccc(C#N)cc2)cc1)NC(=O)O[C@H]1CO[C@H]2OCC[C@H]21)S(=O)(=O)c1ccc2c(c1)OCO2 [Compound 215]
IC50 [1]: 1 to 10 nM

CC(C)CN(C[C@@H](O)[C@H](Cc1ccc(OCCN2CCOCC2)cc1)NC(=O)O[C@H]1CO[C@H]2OCC[C@H]21)S(=O)(=O)c1ccc2c(c1)OCO2 [Compound 48, Bis-THF Methylenedioxybenzenesulfonamide Ethylmorpholine Tethered Product]
IC50 [2]: 1 to 10 nM

N#Cc1cccc(COc2ccc(C[C@H](NC(=O)O[C@H]3CO[C@H]4OCC[C@H]43)[C@H](O)CN(CC3CCCC3)S(=O)(=O)c3ccc4c(c3)OCO4)cc2)c1 [Compound 396, (3R,3aS,6aR)-hexahydrofuro[2,3-b]furan-3-yl (1S,2R)-3-[(1,3-benzodioxol-5-ylsulfonyl)(cyclopentylmethyl)amino-]-1-{4-[(3-cyanobenzyl)oxy]benzyl}-2-hydroxypropylcarbamate]
IC50 [1]: 1 to 10 nM

CCOC(CCOC(=O)N[C@@H](Cc1ccc(OCc2ccccc2)cc1)[C@H](O)CN(CC(C)C)S(=O)(=O)c1ccc2c(c1)OCO2)OCC [Compound 328, 3,3-Diethoxypropyl (1S,2R)-3-[(1,3-benzodioxol-5-ylsulfonyl)(isobutyl)amino]-1-[4-(benzyloxy)benzyl]-2-hydroxypropylcarbamate]
IC50 [3]: 10 to 100 nM

CC(C)CN(C[C@@H](O)[C@H](Cc1ccc(OCCCCNC(=O)OC(C)C)cc1)NC(=O)O[C@H]1CO[C@H]2OCC[C@H]21)S(=O)(=O)c1ccc2c(c1)OCO2 [Compound 250]
IC50 [1]: 1 to 10 nM

CC(C)CN(CC(O)C(Cc1ccc(OCCCN2CCOCC2)cc1)NC(=O)OC(C)(C)C)S(=O)(=O)c1cccc(N)c1 (centres unmarked) [Compound 16]
IC50 [4]: > 100 nM

CCOC(=O)NCCCOc1ccc(C[C@H](NC(=O)O[C@H]2CO[C@H]3OCC[C@H]32)[C@H](O)CN(CC(C)C)S(=O)(=O)c2ccc3c(c2)OCO3)cc1 [Compound 246]
IC50 [1]: 1 to 10 nM

CC(C)CN(C[C@@H](O)[C@H](Cc1ccc(OCc2ccccc2)cc1)NC(=O)O[C@H]1CO[C@H]2OCC[C@H]21)S(=O)(=O)c1ccc2nc(N)sc2c1 [Compound 44, Bis-THF Benzothiazolesulfonamide Benzyl Ether]
IC50 [2]: < 1 nM

CC(C)CN(C[C@@H](O)[C@H](Cc1ccc(OCCCC(N)=O)cc1)NC(=O)O[C@H]1CO[C@H]2OCC[C@H]21)S(=O)(=O)c1ccc2c(c1)OCO2 [Compound 285, (3R,3aS,6aR)-hexahydrofuro[2,3-b]furan-3-yl (1S,2R)-1-[4-(4-amino-4-oxobutoxy)benzyl]-3-[(1,3-benzodioxol-5-ylsulfonyl)(isobutyl)amino]-2-hydroxypropylcarbamate]
IC50 [3]: 10 to 100 nM

CC(C)CN(C[C@@H](O)[C@H](Cc1ccc(OCc2ccsc2)cc1)NC(=O)O[C@H]1CO[C@H]2OCC[C@H]21)S(=O)(=O)c1ccc2c(c1)OCO2 [Compound 207]
IC50 [1]: 1 to 10 nM

CC(C)(CCCC#N)CN(C[C@@H](O)[C@H](Cc1ccc(OCc2ccccc2)cc1)NC(=O)O[C@H]1CCOC1)S(=O)(=O)c1ccc2c(c1)OCO2 [Compound 307, (3S)-Tetrahydro-3-furanyl (1S,2R)-3-[(1,3-benzodioxol-5-ylsulfonyl)(5-cyano-2,2-dimethylpentyl)amino]-1-[4-(benzyloxy)benzyl]-2-hydroxypropylcarbamate]
IC50 [3]: 10 to 100 nM

CC(C)CN(C[C@@H](O)[C@H](Cc1ccc(OCCCN)cc1)NC(=O)OC1CO[C@H]2OCC[C@@H]12)S(=O)(=O)c1ccc2c(c1)OCO2 (stereo in doubt) [Compound 222, (3R,3aS,6aR)-hexahydrofuro[2,3-b]furan-3-yl (1S,2R)-1-[4-(3-aminopropoxy)benzyl]-3-[(1,3-benzodioxol-5-ylsulfonyl)(isobutyl)amino]-2-hydroxypropylcarbamate]
IC50 [3]: 10 to 100 nM

CC(C)CN(CC(O)C(Cc1ccc(OCc2ccccn2)cc1)NC(=O)OC1COC2OCCC12)S(=O)(=O)c1cccc(N)c1 (centres unmarked) [Compound 36]
IC50 [4]: 10 to 100 nM

CC(C)CN(C[C@@H](O)[C@H](Cc1ccc(OCCCNC(=O)N(C)C)cc1)NC(=O)O[C@H]1CO[C@H]2OCC[C@H]21)S(=O)(=O)c1ccc2c(c1)OCO2 [Compound 254]
IC50 [1]: 1 to 10 nM

CC(C)CN(CC(O)C(Cc1ccc(OCc2ccccc2)cc1)NC(=O)OC1COC2OCCC12)S(=O)(=O)c1ccc2c(c1)OCO2 (centres unmarked) [Compound 46, Bis-THF Methylenedioxybenzenesulfonamide Benzyl Ether]
IC50 [4]: < 1 nM

Cc1cc(S(=O)(=O)N(CC(C)C)C[C@@H](O)[C@H](Cc2ccc(OCc3cccc(C#N)c3)cc2)NC(=O)O[C@H]2CO[C@H]3OCC[C@H]32)ccc1O [Compound 346]
IC50 [3]: 10 to 100 nM

CC(C)CN(C[C@@H](O)[C@H](Cc1ccc(OCc2nccn2Cc2ccccc2)cc1)NC(=O)O[C@H]1CO[C@H]2OCC[C@H]21)S(=O)(=O)c1ccc2c(c1)OCO2 [Compound 394]
IC50 [1]: 1 to 10 nM

CC(C)CN(C[C@@H](O)[C@H](Cc1ccc(OCc2ccc([N+](=O)[O-])cc2)cc1)NC(=O)O[C@H]1CO[C@H]2OCC[C@H]21)S(=O)(=O)c1ccc2c(c1)OCO2 [Compound 383, (3R,3aS,6aR)-hexahydrofuro[2,3-b]furan-3-yl (1S,2R)-3-[(1,3-benzodioxol-5-ylsulfonyl)(isobutyl)amino]-2-hydroxy 1-{4-[(4-nitrobenzyl)oxy]benzyl}propylcarbamate]
IC50 [1]: 1 to 10 nM

CC(C)CN(C[C@@H](O)[C@H](Cc1ccc(OCCCNC(=O)OC(C)C)cc1)NC(=O)O[C@H]1CO[C@H]2OCC[C@H]21)S(=O)(=O)c1ccc2c(c1)OCO2 [Compound 249]
IC50 [1]: 1 to 10 nM

CC(C)CN(C[C@@H](O)[C@H](Cc1ccc(OCCCC(=O)O)cc1)NC(=O)O[C@H]1CO[C@H]2OCC[C@H]21)S(=O)(=O)c1ccc2c(c1)OCO2 [Compound 339, 4-(4-{(2S,3R)-2-({[(3R,3aS,6aR)-hexahydrofuro[2,3-b]furan-3-yloxy]carbonyl}amino)-4-[(1,3-benzodioxol-5-ylsulfonyl)(isobutyl)amino]-3-hydroxybutyl}phenoxy) butanoic acid]
IC50 [3]: 10 to 100 nM

COCCN(CCOC)CCOc1ccc(CC(NC(=O)OC2CCOC2)C(O)CN(CC(C)(C)CCC#N)S(=O)(=O)c2ccc3c(c2)OCO3)cc1 (centres unmarked) [Compound 69]
IC50 [4]: > 100 nM

CC(C)CC(=O)NCCCOc1ccc(C[C@H](NC(=O)O[C@H]2CO[C@H]3OCC[C@H]32)[C@H](O)CN(CC(C)C)S(=O)(=O)c2ccc3c(c2)OCO3)cc1 [Compound 231]
IC50 [1]: 1 to 10 nM

CC(C)CN(C[C@@H](O)[C@H](Cc1ccc(OCCN)cc1)NC(=O)O[C@H]1CO[C@H]2OCC[C@H]21)S(=O)(=O)c1ccc2c(c1)OCO2 [Compound 354, (3R,3aS,6aR)hexahydrofuro[2,3-b]furan-3-yl (1S,2R)-3-[(1,3-benzodioxol-5-ylsulfonyl)(isobutyl)amino]-2-hydroxy-1-[4-(2-aminoethoxy)benzyl]propylcarbamate]
IC50 [3]: 10 to 100 nM

CC(C)CN(C[C@@H](O)[C@H](Cc1ccc(OCCCc2cccnc2)cc1)NC(=O)O[C@H]1CO[C@H]2OCC[C@H]21)S(=O)(=O)c1ccc2c(c1)OCO2 [Compound 214]
IC50 [1]: 1 to 10 nM

CC(C)CN(CC(O)C(Cc1ccc(OCCN2CCOCC2)cc1)NC(=O)OC1CCOC1)S(=O)(=O)c1cccc(N)c1 (centres unmarked) [Compound 23]
IC50 [4]: 10 to 100 nM

CC(C)CN(C[C@@H](O)[C@H](Cc1ccc(OCCNC(=O)c2ccco2)cc1)NC(=O)O[C@H]1CO[C@H]2OCC[C@H]21)S(=O)(=O)c1ccc2c(c1)OCO2 [Compound 234]
IC50 [1]: 1 to 10 nM
